US9663480B2, “BIS-MMF derivatives” (RATIOPHARM GMBH, priority 2013, dated 2017)

Assay: Kinetics of MMF-release during incubation in intestinal fluid from the minipig (LC-MS quantification of MMF)
Assay type: in vitro ADME, Gottingen SPF minipig
Settings: diluted small intestinal fluid (1/20 v/v with 50 mM KH2PO4, pH 6.8), 37° C., samples at 0-120 min; FIG. 1; DMF as reference
Experimental: Investigation and Comparision of the Kinetics of MMF-Release of the Different Compounds of the Present Invention and DMF During Incubation in Intestinal Fluid from the Minipig
Intestinal fluid samples were prepared at CiToxLAB Scantox A/S. The samples were taken from 1 female Gottingen SPF minipig from CiToxLAB Scantox A/S standard stock, originally obtained from Ellegaard Gottingen Minipigs A/S, DK-4261 Dalmose, Denmark. The minipig was 10 months old and the body weight was 21 kg. The minipig was identified by an individual number tagged to the pinna of one ear (animal number is documented in the raw data).
The minipig was fasted for approximately 28 hours before sampling of intestinal fluid. […]
Incubations were continued and in case the result of analysis of the 120 min indicated the presence of remaining intact MMF prodrug, additional samples were taken (t=360 or 420 min and at 1,260 or 1,320 min) and analysed.
The concentration/peak area ratio data pairs were subjected to regression analysis with 1/x weighting and the resulting calibration equation was used to quantify the MMF content in incubation samples.

In the case of `COC(=O)/C=C/C(=O)OCCN1CCN(CCOC(=O)/C=C/C(=O)OC)CC1` [Example 1, (E)-But-2-enedioic acid-2-{4-[2-((E)-3-methoxycarbonyl-acryloyloxy)-ethyl]-piperazin-1-yl}-ethyl ester methyl ester], the “hydrolysis to MMF (MMF release) compared with DMF” value is reported as “substantially the same hydrolysis to MMF than DMF”.
